Measurements from ChEMBL document CHEMBL4813929, “Isolation, Structure Determination, and Total Synthesis of Hoshinoamide C, an Antiparasitic Lipopeptide from the Marine Cyanobacterium Caldora penicillata” (J Nat Prod, 2021).
pIC50: −log10 of the molar value.

Tests used:
HeLa = test: Cytotoxicity against human HeLa cells assessed as cell growth inhibition at 10 uM measured after 72 hrs by MTT assay; type: cell-based
Plasmodium falciparum = test: Antiplasmodial activity against asexual Plasmodium falciparum 3D7 infected in human erythrocytes assessed as reduction in parasitemia measured after 72 hrs by LDH assay; type: functional, organism-based; conditions: 3D7, Erythrocyte
HL-60 = test: Cytotoxicity against human HL-60 cells assessed as cell growth inhibition at 10 uM measured after 72 hrs by MTT assay; type: cell-based; conditions: hl-60, 72 h
[1] = test system: Trypanosoma brucei rhodesiense; test: Antitrypanosomal activity against Trypanosoma brucei rhodesiense IL-1501 assessed as parasite growth inhibition incubated for 69 hrs by AlamarBlue assay; type: functional, organism-based; conditions: IL-1501, 69 h

Compound | Activity (HeLa) | pIC50 (Plasmodium falciparum) | Activity (HL-60) | pIC50 [1]
CC[C@H](C)[C@H](C(=O)N[C@@H](CCC(N)=O)C(=O)N[C@H](C(=O)N(C)[C@H](Cc1ccccc1)C(=O)N1CCC[C@H]1C(=O)OC)C(C)C)N(C)C(=O)[C@H](CC(C)C)NC(=O)CC[C@H](C)CCCCNC(=O)CCCc1ccc(O)cc1 | Non-Toxic | 6.02 | Non-Toxic | 5.54
O=C1C(O)=C([C@H]2CC[C@H](c3ccc(Cl)cc3)CC2)C(=O)c2ccccc21 [ATOVAQUONE] | – | 9.02 | – | –
N=C(N)c1ccc(OCCCCCOc2ccc(C(=N)N)cc2)cc1 [PENTAMIDINE] | – | – | – | 9.00
CC[C@H](C)[C@H](C(=O)N[C@@H](CCC(N)=O)C(=O)N[C@H](C(=O)N(C)[C@H](Cc1ccccc1)C(=O)N1CCC[C@H]1C(=O)OC)C(C)C)N(C)C(=O)[C@H](CC(C)C)NC(=O)CC[C@@H](C)CCCCNC(=O)CCCc1ccc(O)cc1 | Non-Toxic | 6.06 | Non-Toxic | 5.36
